Laboratory results from US20230203004A1, “RSV INHIBITING 3-SUBSTITUTED QUINOLINE AND CINNOLINE DERIVATIVES” (Janssen Sciences Ireland Unlimited Company, priority 2020, published 2023).
pEC50: −log10 of the molar value.

Experiments:
rgRSV224 virus = assay: Antiviral activity: rgRSV224 (GFP) replication in HeLa cells; format: cell-based, respiratory syncytial virus (RSV); conditions: human respiratory syncytial virus, HeLa, 72 h, read-out: RSV HELA EC50, HeLa cells, rgRSV224 MOI = 1, GFP expression three days post-virus exposure; averaged data of several repeat experiments
Method: (§1) Black 384-well clear-bottom microtiter plates (Corning, Amsterdam, The Netherlands) were filled via acoustic drop ejection using the echo liquid handler (Labcyte, Sunnyvale, California). 200 nL of compound stock solutions (100% DMSO) were transferred to the assay plates. 9 serial 4-fold dilutions of compound were made, creating per quadrant the same compound concentration. The assay was initiated by adding 10 µL of culture medium to each well (RPMI medium without phenol red, 10% FBS-heat inactivated, 0.04% gentamycin (50 mg/mL). All addition steps are done by using a multidrop dispenser (Thermo Scientific, Erembodegem, Belgium). Next, rgRSV224 virus (MOI = 1) diluted in culture medium was added to the plates. rgRSV224 virus is an engineered virus that includes an additional GFP gene (Hallak LK, Spillmann D, Collins PL, Peeples ME. Glycosaminoglycan sulfation requirements for respiratory syncytial virus infection; Journal of virology (2000), 74(22), 10508-13) and was in-licensed from the NIH (Bethesda, MD, USA). Finally, 20 µL of a HeLa cell suspension (3,000 cells/well) were plated. Medium, virus- and mock-infected controls were included in each test. The wells contain […] DMSO per volume. Cells were incubated at 37° C. in a 5% CO2 atmosphere. Three days post-virus exposure, viral replication was quantified by measuring GFP expression in the cells by an in house developed MSM laser microscope (Tibotec, Beerse, Belgium). The EC50 was defined as the 50% inhibitory concentration for GFP expression. In parallel, compounds were incubated for three days in a set of white 384-well microtiter plates (Corning) and the cytotoxicity of compounds in HeLa cells was determined by measuring the ATP content of the cells using the ATPlite kit (Perkin Elmer, Zaventem, Belgium) according to the manufacturer’s instructions. The CC50 was defined as the 50% concentration for cytotoxicity.

[1] = Cytotoxicity in HeLa cells (ATP content, ATPlite kit); format: cell-based; conditions: human, TOX HELA CC50
Method: as §1

Structure (SMILES)	pEC50 (rgRSV224 virus)	CC50 at 3 days [1] [µM]
COc1cc(C(=O)NC[C@](O)(c2cc(C(C)(C)O)c(Cl)c(-c3ccc(F)cc3)n2)C2CC2)cc2cc(C)c(F)nc12 [compound 215]	9.06	20
COc1cc(C(=O)NC[C@](O)(c2cc(C(C)(C)O)c(F)c(-c3ccc(F)cc3)n2)C2CC2)cc2cc(C)c(F)nc12 [compound 216, (-)-N-{2-Cyclopropyl-2-[5-Fluoro-6-(4-Fluorophenyl)-4-(2-Hydroxypropan-2-yl)Pyridin-2-yl]-2-Hydroxyethyl}-2-Fluoro-8-Methoxy-3-Methylquinoline-6-Carboxamide]	9.21	21
COc1cc(C(=O)NC[C@](O)(c2cc(C(C)(C)O)c(F)c(-c3ccc(C(F)(F)F)cc3)n2)C2CC2)cc2cc(C)c(F)nc12 [compound 217, N-[(-)Cyclopropyl{5-Fluoro-4-(2-Hydroxypropanyl)-6-[4-(Trifluoromethyl)Phenyl]-Pyridinyl}Hydroxyethyl]Fluoro-8-Methoxy-3-Methylquinoline-6-Carboxamide]	8.89	14
COc1cc(C(=O)NC[C@](O)(c2cc(C(C)(C)O)c(F)c(-c3ccc(F)c(F)c3)n2)C2CC2)cc2cc(C)c(F)nc12 [compound 218, (-)-N-{2-Cyclopropyl-2-[6-(3,4-Difluorophenyl)-5-Fluoro-4-(2-Hydroxypropan-2-yl)Pyridin-2-yl]-2-Hydroxyethyl}-2-Fluoro-8-Methoxy-3-Methylquinoline-6-Carboxamide]	8.92	16
Cc1cnc2c(OC3CC3)cc(C(=O)NC[C@](O)(c3cc(C(C)(C)O)c(Cl)c(-c4ccc(F)cc4)n3)C(F)(F)F)cc2c1 [compound 219, (-)-N-{2-[5-Chloro-6-(4-Fluorophenyl)-4-(2-Hydroxypropan-2-yl)Pyridin-2-yl]-3,3,3-Trifluoro-2-Hydroxypropyl}-8-(Cyclopropyloxy)-3-Methylquinoline-6-Carboxamide]	8.30	27
Cc1cnc2c(OC3CC3)cc(C(=O)NC[C@](O)(c3nc(-c4ccc(F)cc4)c(F)c(C(C)(C)O)c3F)C(F)(F)F)cc2c1 [compound 220, (-)(Cyclopropyloxy)-N-{2-[3,5-Difluoro-6-(4-Fluorophenyl)-4-(2-Hydroxypropan-2-yl)Pyridin-2-yl]-3,3,3-Trifluoro-2-Hydroxypropyl}-3-Methylquinoline-6-Carboxamide]	8.62	36
Cc1cnc2c(OC3CC3)cc(C(=O)NC[C@](O)(c3nc(-c4ccc(F)cc4)c(Cl)c(C(C)(C)O)c3F)C(F)(F)F)cc2c1 [compound 221, (-)-N-{2-[5-Chloro-3-Fluoro-6-(4-Fluorophenyl)-4-(2-Hydroxypropan-2-yl)Pyridin-2-yl]-3,3,3-Trifluoro-2-Hydroxypropyl}-8-(Cyclopropyloxy)-3-Methylquinoline-6-Carboxamide]	8.03	65
Cc1cnc2c(OC3CC3)cc(C(=O)NC[C@](O)(c3cc(C(C)(C)O)c(Cl)c(-c4ccc(F)cc4)n3)C3CC3)cc2c1 [compound 222, (-)-A-{2-[5-Chloro-6-(4-Fluorophenyl)-4-(2-Hydroxypropan-2-yl)Pyridin-2-yl]-2-Cyclopropyl-2-Hydroxyethyl}-8-(Cyclopropyloxy)-3-Methylquinoline-6-Carboxamide]	8.82	27
Cc1cnc2c(OC3CC3)cc(C(=O)NC[C@](O)(c3cc(C(C)(C)O)c(F)c(-c4ccc(F)cc4)n3)C3CC3)cc2c1 [compound 223, (-)-N-{2-Cyclopropyl-2-[5-Fluoro-6-(4-Fluorophenyl)-4-(2-Hydroxypropan-2-yl)Pyridin-2-yl]-2-Hydroxyethyl}-8-(Cyclopropyloxy)-3-Methylquinoline-6-Carboxamide]	9.20	21
Cc1cnc2c(OC3CC3)cc(C(=O)NC[C@](O)(c3cc(C(C)(C)O)c(F)c(-c4ccc(C(F)(F)F)cc4)n3)C3CC3)cc2c1 [compound 224]	8.77	15
Cc1cnc2c(OC3CC3)cc(C(=O)NC[C@](O)(c3cc(C(C)(C)O)c(F)c(-c4ccc(F)c(F)c4)n3)C3CC3)cc2c1 [compound 225, (-)-N-{2-Cyclopropyl-2-[6-(3,4-Difluorophenyl)-5-Fluoro-4-(2-Hydroxypropan-2-yl)Pyridin-2-yl]-2-Hydroxyethyl}-8-(Cyclopropyloxy)-3-Methylquinoline-6-Carboxamide]	9.23	15
COc1cc(C(=O)NC[C@](O)(c2cc(C(C)(C)O)c(Cl)c(-c3ccc(F)cc3)n2)C2CC2)cc2cc(C(F)F)cnc12 [compound 226, (-)-N-{2-[5-Chloro-6-(4-Fluorophenyl)-4-(2-Hydroxypropan-2-yl)Pyridin-2-yl]-2-Cyclopropyl-2-Hydroxyethyl}-3-(Difluoromethyl)-8-Methoxyquinoline-6-Carboxamide]	8.62	14
COc1cc(C(=O)NC[C@](O)(c2cc(C(C)(C)O)c(F)c(-c3ccc(F)cc3)n2)C2CC2)cc2cc(C(F)F)cnc12 [compound 227, N-{(-)Cyclopropyl[5-Fluoro-6-(4-Fluorophenyl)-4-(2-Hydroxypropanyl)Pyridinyl]Hydroxyethyl}-3-(Difluoromethyl)-8-Methoxyquinoline-6-Carboxamide]	8.96	15
COc1cc(C(=O)NC[C@](O)(c2nc(-c3ccc(F)cc3)c(F)c(C(C)(C)O)c2F)C(F)(F)F)cc2cc(C3CC3)cnc12 [compound 228, (-)Cyclopropyl-N-{2-[3,5-Difluoro-6-(4-Fluorophenyl)-4-(2-Hydroxypropan-2-yl)Pyridin-2-yl]-3,3,3-Trifluoro-2-Hydroxypropyl}-8-Methoxyquinoline-6-Carboxamide]	7.89	10
COc1cc(C(=O)NC[C@](C)(O)c2cc(C(C)(C)O)c(Cl)c(-c3ccc(F)cc3)n2)cc2cc(C)nnc12 [compound 229, (-)-N-{2-[5-Chloro-6-(4-Fluorophenyl)-4-(2-Hydroxypropan-2-yl)Pyridin-2-yl]-2-Hydroxypropyl}-8-Methoxy-3-Methylcinnoline-6-Carboxamide]	9.09	44
COc1cc(C(=O)NC[C@@](C)(O)c2cc(C(C)(C)O)c(Cl)c(-c3ccc(F)cc3)n2)cc2cc(C)nnc12 [compound 230]	6.92	57
COc1cc(C(=O)NC[C@](O)(c2cc(C(C)(C)O)c(Cl)c(-c3ccc(F)cc3)n2)C(F)(F)F)cc2cc(C)nnc12 [compound 232, (-)-N-{2-[5-Chloro-6-(4-Fluorophenyl)-4-(2-Hydroxypropan-2-yl)Pyridin-2-yl]-3,3,3-Trifluoro-2-Hydroxypropyl}-8-Methoxy-3-Methylcinnoline-6-Carboxamide]	8.80	24
COc1cc(C(=O)NC[C@@](O)(c2cc(C(C)(C)NS(C)(=O)=O)c(Cl)c(-c3ccc(F)cc3)n2)C(F)(F)F)cc2cc(C)nnc12 [compound 233, (+)-N-{2-[5-Chloro-6-(4-Fluorophenyl)-4-{2-[(Methanesulfonyl)Amino]Propan-2-yl}Pyridin-2-yl]-3,3,3-Trifluoro-2-Hydroxypropyl}-8-Methoxy-3-Methylcinnoline-6-Carboxamide]	6.40	43
